Measurements taken from PMC6968775, “Assessment of contribution of BCRP to intestinal absorption of various drugs using portal‐systemic blood concentration difference model in mice” (Pharmacology Research & Perspectives, 2020).
Where “and” joins values, the source holds several entries; their conditions need not be identical. Equal values may be shown once.

What was measured:
[1] = Pharmacokinetics after iv and oral administration, P‐S difference method, wild‐type mice; assay type: in vivo
Experimental: (§1) Male Mdr1a/1b(−/−) and Bcrp(−/−) mice, and WT mice of the same genetic background (FVB) were obtained from Taconic Farms (Germantown, NY, USA). […] Food and water were available ad libitum. All experiments were carried out in accordance with the principles and procedures outlined in the National Institutes of Health Guide for the Care and Use of Laboratory.
(§2) All the mice were fasted overnight with free access to tap water. In the intravenous administration studies, model compounds were administered via the tail vein at doses of 1 mg/kg (n = 3). Following administration, blood samples were collected from the abdominal vein of the anesthetized mice at 0.083, 0.17, 0.5, 1, 2, 4, and 8 hours. […] Following administration, blood samples were taken from the portal and abdominal veins of the anesthetized mice at 0.083, 0.17, 0.5, 1, 2, 4, and 8 hours. The plasma samples were separated by centrifugation at 14 000g for 10 minutes at 4°C and stored at −30°C until analysis.
(§3) After organic layer was evaporated at 60°C, the resultant residues were dissolved in a mobile phase. For the determination of topotecan and sulfasalazine, plasma samples were mixed with acetonitrile, centrifuged at 750 g for 10 minutes at 4°C, and the supernatants were collected. After the evaporation of the supernatants, the residues were dissolved in a mobile phase, and acidified with phosphoric acid for topotecan. All drugs were analyzed by HPLC system (Shimadzu LC‐10AS pump, Shimadzu SIL‐10A autosampler) equipped with a reverse‐phase column (COSMOSIL 5C18‐AR‐II, 3.5‐μm […], 4.6 × 150 mm).
(§4) Elimination rate constant (k e) was determined by the least squares regression analysis of plasma concentration vs time curve. Elimination half‐life (t 1/2) was calculated using Eq.1:(1) t1/2=ln2/ke
(§5) Area under plasma concentration‐time curve (AUC) and area under the first moment curve (AUMC) from time 0 to infinity were calculated by trapezoidal rule.
(§6) Absorption rate constant (k a) after oral administration was calculated by the nonlinear least squares fitting with program MULTI.12
(§7) BA was calculated by Eq.5:(7) BA=AUCoral/AUCiv×Doseiv/Doseoral×100 where AUCoral is AUC after oral administration. Doseiv and Doseoral are administered dose in the intravenous and oral administration study, respectively.
(§8) Hepatic availability (F h) was calculated by Eq.6:(8) Fh=F/Fa×Fg

[2] = Pharmacokinetics after iv and oral administration, P‐S difference method, Bcrp(−/−) mice; assay type: in vivo
Experimental: as §1, §2, §3, §4, §5, §6, §7, §8

[3] = tested on: BCRP; settings: Caco‐2 permeability study; ref (10); Kawahara et al, manuscript in revision; cited from earlier work
[4] = tested on: BCRP
[5] = tested on: P‐gp; settings: in vivo (mice); calculated from F a F g in WT, Bcrp(−/−) and Mdr1a/1b(−/−) mice (Eq. 12)
[6] = tested on: P‐gp; settings: Caco‐2 permeability study; unpublished data; ref Fujita et al, manuscript in preparation; cited from earlier work
[7] = Blood/plasma concentration ratio (R b) in fresh whole blood; assay type: in vitro ADME, FVB mice; settings: fresh whole blood, FVB mouse whole blood, 37°C
Experimental: Similarly, the model compounds were added to plasma, and reference blood samples were obtained according to the same procedure. These concentrations of drugs in each sample were analyzed using HPLC (C B and C P, respectively). R b value was calculated by dividing C B by C P.

[8] = Pharmacokinetics after iv and oral administration, P‐S difference method, Mdr1a/1b(−/−) mice; assay type: in vivo
Experimental: as §1, §2, §3, §4, §5, §6, §7, §8

[9] = wild‐type mice, p.o. (ciprofloxacin 1, nitrofurantoin 2, topotecan 1, sulfasalazine 5 mg/kg)
[10] = Bcrp(−/−) mice, p.o. (ciprofloxacin 1, nitrofurantoin 2, topotecan 1, sulfasalazine 5 mg/kg)
[11] = Mdr1a/1b(−/−) mice, p.o. (ciprofloxacin 1, nitrofurantoin 2, topotecan 1, sulfasalazine 5 mg/kg)
[12] = male, Mdr1a/1b(−/−) (FVB background), mouse, systemic plasma (abdominal vein), po

## O=C1CN(/N=C/c2ccc([N+](=O)[O-])o2)C(=O)N1 [nitrofurantoin, Nitrofurantoin]
[1]; Table 5 summary, WT mice, oral administration
  k a, wt: 5.80
[1]; as fraction, WT mice, oral administration
  (F a F g) wt: 0.64
[1]; male, FVB (wild-type), mouse, plasma (systemic, abdominal vein), wild‐type mice, iv 1 mg/kg, read-out: CL tot (converted)
  clearance: 38 mL/min/kg
[1]; male, FVB (wild-type), mouse, plasma (systemic, abdominal vein), wild‐type mice, iv 1 mg/kg, read-out: Vdss
  Vd: 1.94 L/kg
[1]; male, FVB (wild-type), mouse, plasma, iv, 1 mg/kg, wild‐type mice, iv 1 mg/kg
  half-life: 172 min
[1]; male, FVB (wild-type), mouse, plasma, iv, 1 mg/kg, wild‐type mice, iv 1 mg/kg, read-out: AUC 0→∞
  AUC(0-inf): 1.84 µM·h
[1]; male, FVB (wild-type), mouse, portal vein plasma, po
  Tmax: 10.2 min
[1]; male, FVB (wild-type), mouse, portal vein plasma, po, wild‐type mice, p.o. (ciprofloxacin 1, nitrofurantoin 2, topotecan 1, sulfasalazine 5 mg/kg), portal vein (pv) plasma, read-out: AUC 0→∞ (AUCpv)
  AUC(0-inf): 2.54 µM·h
[1]; male, FVB (wild-type), mouse, systemic plasma (abdominal vein), po
  Tmax: 10.2 min
[1]; male, FVB (wild-type), mouse, systemic plasma (abdominal vein), po, wild‐type mice, p.o. (ciprofloxacin 1, nitrofurantoin 2, topotecan 1, sulfasalazine 5 mg/kg), systemic (sys) plasma
  half-life: 55.8 min
[1]; male, FVB (wild-type), mouse, systemic plasma (abdominal vein), po, wild‐type mice, p.o. (ciprofloxacin 1, nitrofurantoin 2, topotecan 1, sulfasalazine 5 mg/kg), systemic (sys) plasma, read-out: AUC 0→∞ (AUCsys)
  AUC(0-inf): 1.83 µM·h
[1]; [9]
  F h: 78.3%
  k a: 5.8 h⁻¹ and 5.80 h⁻¹
[1]; wild‐type mice, p.o. (ciprofloxacin 1, nitrofurantoin 2, topotecan 1, sulfasalazine 5 mg/kg) vs iv 1 mg/kg
  BA: 49.9%
[1]; wild‐type mice, p.o. (ciprofloxacin 1, nitrofurantoin 2, topotecan 1, sulfasalazine 5 mg/kg), P‐S difference method
  F a F g: 63.7%
[1]; wild‐type mice, p.o. (ciprofloxacin 1, nitrofurantoin 2, topotecan 1, sulfasalazine 5 mg/kg), portal vein (pv) plasma
  AUC 0→∞ (AUCpv): 2.55 µM·h
[1]; wild‐type mice, p.o. (ciprofloxacin 1, nitrofurantoin 2, topotecan 1, sulfasalazine 5 mg/kg), systemic (sys) plasma
  AUC 0→∞ (AUCsys): 1.84 µM·h
[2]; [10]
  F h: 90.0%
  k a: 6.9 h⁻¹ and 6.89 h⁻¹
[2]; Bcrp(−/−) mice, p.o. (ciprofloxacin 1, nitrofurantoin 2, topotecan 1, sulfasalazine 5 mg/kg) vs iv 1 mg/kg
  BA: 69.4%
[2]; Bcrp(−/−) mice, p.o. (ciprofloxacin 1, nitrofurantoin 2, topotecan 1, sulfasalazine 5 mg/kg), P‐S difference method
  F a F g: 77.1%
[2]; Bcrp(−/−) mice, p.o. (ciprofloxacin 1, nitrofurantoin 2, topotecan 1, sulfasalazine 5 mg/kg), portal vein (pv) plasma
  AUC 0→∞ (AUCpv): 3.41 µM·h
[2]; Bcrp(−/−) mice, p.o. (ciprofloxacin 1, nitrofurantoin 2, topotecan 1, sulfasalazine 5 mg/kg), systemic (sys) plasma
  AUC 0→∞ (AUCsys): 2.56 µM·h
[2]; Table 5 summary, Bcrp(−/−) mice, oral administration
  k a, bcrp: 6.89
[2]; as fraction, Bcrp(−/−) mice, oral administration
  (F a F g)bcrp: 0.77
[2]; male, Bcrp(−/−) (FVB background), mouse, plasma, iv, 1 mg/kg, Bcrp(−/−) mice, iv 1 mg/kg
  half-life: 84.6 min
[2]; male, Bcrp(−/−) (FVB background), mouse, portal vein plasma, po
  Tmax: 10.2 min
[2]; male, Bcrp(−/−) (FVB background), mouse, systemic plasma (abdominal vein), po
  Tmax: 10.2 min
[2]; male, FVB Bcrp(−/−), mouse, plasma (systemic, abdominal vein), iv, 1 mg/kg, Bcrp(−/−) mice, iv 1 mg/kg, read-out: AUC 0→∞
  AUC(0-inf): 1.84 µM·h
[2]; male, FVB Bcrp(−/−), mouse, plasma (systemic, abdominal vein), Bcrp(−/−) mice, iv 1 mg/kg, read-out: CL tot (converted)
  clearance: 38 mL/min/kg
[2]; male, FVB Bcrp(−/−), mouse, plasma (systemic, abdominal vein), Bcrp(−/−) mice, iv 1 mg/kg, read-out: Vdss
  Vd: 1.45 L/kg
[2]; male, FVB Bcrp(−/−), mouse, portal vein plasma, po, Bcrp(−/−) mice, p.o. (ciprofloxacin 1, nitrofurantoin 2, topotecan 1, sulfasalazine 5 mg/kg), portal vein (pv) plasma, read-out: AUC 0→∞ (AUCpv)
  AUC(0-inf): 3.41 µM·h
[2]; male, FVB Bcrp(−/−), mouse, systemic plasma (abdominal vein), po, Bcrp(−/−) mice, p.o. (ciprofloxacin 1, nitrofurantoin 2, topotecan 1, sulfasalazine 5 mg/kg), systemic (sys) plasma
  half-life: 75 min
[2]; male, FVB Bcrp(−/−), mouse, systemic plasma (abdominal vein), po, Bcrp(−/−) mice, p.o. (ciprofloxacin 1, nitrofurantoin 2, topotecan 1, sulfasalazine 5 mg/kg), systemic (sys) plasma, read-out: AUC 0→∞ (AUCsys)
  AUC(0-inf): 2.56 µM·h
[2]; oral administration
  AUC pv and AUC sys after oral administration, Bcrp(−/−) mice vs WT mice: approximately 1.5 fold
[3]
  AQbcrp in vitro (Caco‐2): 0.37
[4]; calculated from k a in WT, Bcrp(−/−) and Mdr1a/1b(−/−) mice (Eq. 9)
  AQ bcrp (in vivo): 0.13
[4]; in vivo (mice), calculated from F a F g in WT, Bcrp(−/−) and Mdr1a/1b(−/−) mice (Eq. 11)
  R bcrp (rate of BCRP contribution): 0.15
[5]
  R P‐gp (rate of P‐gp contribution): 0.13
[6]
  AQp‐gp in vitro (Caco‐2): 0.09
[7]
  blood plasma ratio at 15 min, 1 µg/mL: 1.18 ± 0.1
[8]; [11]
  F h: 79.9%
  k a: 7.2 h⁻¹ and 7.20 h⁻¹
[8]; Mdr1a/1b(−/−) mice, p.o. (ciprofloxacin 1, nitrofurantoin 2, topotecan 1, sulfasalazine 5 mg/kg) vs iv 1 mg/kg
  BA: 60.0%
[8]; Mdr1a/1b(−/−) mice, p.o. (ciprofloxacin 1, nitrofurantoin 2, topotecan 1, sulfasalazine 5 mg/kg), P‐S difference method
  F a F g: 75.2%
[8]; Mdr1a/1b(−/−) mice, p.o. (ciprofloxacin 1, nitrofurantoin 2, topotecan 1, sulfasalazine 5 mg/kg), portal vein (pv) plasma
  AUC 0→∞ (AUCpv): 3.18 µM·h
[8]; Mdr1a/1b(−/−) mice, p.o. (ciprofloxacin 1, nitrofurantoin 2, topotecan 1, sulfasalazine 5 mg/kg), systemic (sys) plasma
  AUC 0→∞ (AUCsys): 2.35 µM·h
[8]; Table 5 summary, Mdr1a/1b(−/−) mice, oral administration
  k a, P‐gp: 7.20
[8]; as fraction, Mdr1a/1b(−/−) mice, oral administration
  (F a F g)P‐gp: 0.75
[8]; male, FVB Mdr1a/1b(−/−), mouse, plasma (systemic, abdominal vein), Mdr1a/1b(−/−) mice, iv 1 mg/kg, read-out: CL tot (converted)
  clearance: 35.8 mL/min/kg
[8]; male, FVB Mdr1a/1b(−/−), mouse, plasma (systemic, abdominal vein), Mdr1a/1b(−/−) mice, iv 1 mg/kg, read-out: Vdss
  Vd: 1.36 L/kg
[8]; male, FVB Mdr1a/1b(−/−), mouse, portal vein plasma, po, Mdr1a/1b(−/−) mice, p.o. (ciprofloxacin 1, nitrofurantoin 2, topotecan 1, sulfasalazine 5 mg/kg), portal vein (pv) plasma, read-out: AUC 0→∞ (AUCpv)
  AUC(0-inf): 3.18 µM·h
[8]; male, FVB Mdr1a/1b(−/−), mouse, systemic plasma (abdominal vein), po, Mdr1a/1b(−/−) mice, p.o. (ciprofloxacin 1, nitrofurantoin 2, topotecan 1, sulfasalazine 5 mg/kg), systemic (sys) plasma, read-out: AUC 0→∞ (AUCsys)
  AUC(0-inf): 2.35 µM·h
[8]; male, Mdr1a/1b(−/−) (FVB background), mouse, plasma, iv, 1 mg/kg, Mdr1a/1b(−/−) mice, iv 1 mg/kg, read-out: AUC 0→∞
  AUC(0-inf): 1.95 µM·h
[8]; male, Mdr1a/1b(−/−) (FVB background), mouse, plasma, Mdr1a/1b(−/−) mice, iv 1 mg/kg
  half-life: 70.2 min
[8]; male, Mdr1a/1b(−/−) (FVB background), mouse, portal vein plasma, po
  Tmax: 10.2 min
[8]; [12]
  Tmax: 10.2 min
  half-life: 73.2 min
[8]; oral administration
  AUC pv and AUC sys after oral administration, Mdr1a/1b(−/−) mice vs WT mice: approximately 1.5 fold
